Residues, ends and D or L forms follow the SMILES beside them. *: point of attachment. Cbz = O=C(OCc1ccccc1)*; CH2F = FC*
Test system: granulocytes
Assay: Granulocyte/neutrophil survival in culture, hypodiploid nuclei by propidium iodide flow cytometry
Format: cell-based
Conditions: at 48 hours; granulocytes cultured at 37°C, hypodiploid DNA
Description: Whole blood anticoagulated with Acid Citrate Dextrose (ACD) with a ratio of 1:5 ACD to blood was collected (~100 ml).
Using polypropylene plastic ware, neutrophils are isolated as follows: • 30 ml of the whole blood is added to 50 ml polypropylene centrifuge tubes containing 15 ml of 6% Dextran (in Saline). The blood is allowed to sediment for approximately 1 hour at room temperature.
The turbid straw colored layer harvested from the top of the cylinders into 50 ml conical polypropylene tubes. The blood cells were pelleted by centrifugation at 240 xg (Sorvall centrifuge at 1200 rpm) for 12 min. at 4°C with the brake on low. […]
The supernatant was aspirated and the neutrophil pellet resuspended in 4.0 ml cold PBS (w/o Ca, Mg) on ice. 10 µl of the neutrophil cell suspension was diluted with 990 µl of Trypan blue (1:100) and cells counted using a hemacytometer. The cell number and viability were determined. […]
Neutrophils were resuspended in hypotonic fluorochrome solution at a density of 5×10^6 cells/ml. Propidium iodide fluorescence of individual nuclei was evaluated in FL2 and measured on a logarithmic scale while gating on physical parameters in forward and side scatter to exlude cell debris.
At least 10,000 events per sample were collected and the results were evaluated relative to a non-apoptotic neutrophil population. […]

COC(=O)C[C@H](NC(=O)[C@H](C)NC(=O)[C@@H](NC(=O)OCc1ccccc1)C(C)C)C(=O)CF [zVADfmk] (Cbz-Val-Ala-Asp(OMe)-CH2F)
effect on improving granulocyte survival: weak effect

Source: patent publication EP0929311B1, “INHIBITION OF APOPTOSIS USING INTERLEUKIN-1 beta-CONVERTING ENZYME (ICE)/CED-3 FAMILY INHIBITORS” (Idun Pharmaceuticals, Inc., priority 1996, dated 1998)
